{"source": "paper PMC6192554", "about": "“In vitro toxicity and efficacy of verdinexor, an exportin 1 inhibitor, on opportunistic viruses affecting immunocompromised individuals” (PLoS ONE, 2018)", "key": {"Human CMV strain AD169": {"tested_on": "Human CMV strain AD169", "assay": "HCMV yield reduction assay in HFF cells", "assay_type": "cell-based, human cytomegalovirus", "conditions": "Human betaherpesvirus 5, AD169, HFF", "protocol": "Human CMV strain AD169 was obtained from ATCC and assayed in human foreskin fibroblast cells (HFF). HFF cells were prepared at the University of Alabama at Birmingham (UAB) tissue procurement facility with IRB approval as previously described. Yield reduction assays for HCMV were performed on monolayers of HFF cells prepared in 96-well plates and incubated at 37°C for 1d to allow the cells to reach confluency. Media was then aspirated from the wells were infected at a high multiplicity of infection (MOI). At 1h following infection, the inocula were removed and the monolayers rinsed with fresh media. Compounds were then diluted in assay media consisting of MEM with Earl’s salts supplemented with 2% FBS, L-glutamine, penicillin, and gentamycin. Solutions ranging from 0.0032–10μM in primary assay and 0.032–100μM in secondary assay were added to the wells and the plates were incubated for various times, depending on the virus used and represents the length of a single replication cycle for the virus. A duplicate set of dilutions were also performed but remained uninfected to serve as a cytotoxicity control and received equal compound exposure. Supernatants from each of the infected wells were subsequently titered in a TCID50 assay to quantify the progeny virus."}, "HPV-11": {"tested_on": "HPV-11", "assay": "HPV-11 transient origin-plasmid replication assay in HEK293 cells (qPCR)", "assay_type": "cell-based, human papillomavirus", "protocol": "HPV-11 and -18 were tested in HEK293 cells and primary human keratinocytes (PHK), respectively. PHKs were isolated from neonatal foreskins following circumcision according to IRB-approved protocols at UAB. They were grown in keratinocyte serum-free medium (Life Technologies) with mitomycin C-treated J2 feeder cells (Swiss 3T3 J2 fibroblasts; Elaine Fuchs, Rockefeller University). HEK 293 cells were maintained under standard conditions.\nQuantification of virus was determined via transient replication of an HPV-11 replication origin-containing plasmid in HEK293 cells co-transfected with an HPV-11 replicative DNA helicase E1 and origin binding E2 protein [20]. 293 cells were cultured with test compounds added 4hr post-transfection for 2 days. Low molecular weight DNA was isolated, digested with Dpn1 and exonuclease III to eliminate unreplicated DNA. The Dpn1-resistant DNA was then subjected to qPCR analyses amplifying a small portion of the replication origin [20]. In a negative control, the E1 expression vector was omitted or cultures were treated with the inhibitor cidofovir."}, "KSHV strain BCBL-1": {"tested_on": "KSHV strain BCBL-1", "assay": "KSHV qPCR of viral DNA in PMA-induced BCBL-1 cells", "assay_type": "cell-based, Kaposi's sarcoma-associated herpesvirus", "conditions": "Human gammaherpesvirus 8, BCBL1, KSHV", "protocol": "KSHV strain BCBL-1 was obtained as latently infected BCBL-1 cells through the NIH AIDS Research and Reference Reagent Program. BCBL-1 cells were maintained in growth medium consisting of RPMI 1640 supplemented with 10% FBS, penicillin, gentamicin, and l-glutamine.\nTo quantify virus, compound was diluted from 0.008–100μM and added to BCBL-1 cells induced to undergo a lytic infection by the addition of 100ng/ml phorbol 12-myristate 13-acetate (PMA) (Promega). After 7d, total DNA was prepared, and viral DNA was quantified by qPCR (see S1 Table for primer/probe sequences). Plasmid pMP218 containing a DNA sequence corresponding to nucleotides 14120–14182 (AF148805.2) was used to provide absolute quantification of viral DNA and EC50 [11]."}, "[1]": {"tested_on": "JC polyoma virus MAD-4 strain", "assay": "microbe, parasite or virus in culture", "assay_type": "cell-based", "conditions": "Polyomavirus sp., COS-7, JCPyV, primary screen, COS-7 cells", "protocol": "(§1) John Cunningham polyomavirus (JCPyV) strains MAD-1 and MAD-4 and BK polyomavirus (BKPyV) Gardner strain were obtained from ATCC. COS-7 cells were obtained from ATCC and maintained according to ATCC-supplied protocols.\nCytotoxicity assay was performed in a manner analogous to KSHV above. Evaluation of compounds against JCPyV virus was done in COS7 cells with the plasmid pMP508 to provide a standard curve for quantification.\nViral DNA was quantified (S1 Table) together with the plasmid pMP508 to provide a standard curve for absolute quantification. Secondary assays against JCV were also performed in COS7 cells by methods similar to those for BK virus to identify if verdinexor inhibited adsorption or entry of the virus."}, "[2]": {"tested_on": "BK polyomavirus (BKPyV) Gardner strain", "assay": "BKPyV qPCR genome copy assay in HFF cells", "assay_type": "cell-based", "conditions": "Betapolyomavirus hominis", "protocol": "as §1\nPrimary assays for BKPyV were performed in 384-well plates containing monolayers of HFF cells. Compound dilutions ranging from 0.0032–100μM were prepared in plates containing cells which were subsequently infected at an MOI of 0.001. After a 7d incubation, total DNA was prepared using Extracta and genome copy number was quantified by qPCR using the primers and probe listed in S1 Table [18]. Plasmid pMP526 served as the DNA standard for quantification purposes. Compounds were confirmed in a similar assay in 96-well plates according to established laboratory protocols with the compounds added 1h […] to identify compounds that inhibit early stages of replication including adsorption and entry. Genome copy number was determined by methods described above."}, "[3]": {"tested_on": "Epstein-Barr virus (EBV) Akata strain", "assay": "EBV primary assay, DNA hybridization in induced Akata cells", "assay_type": "cell-based", "protocol": "(§2) EBV Akata strain was assayed in Akata cells (John Sixbey, LSU) latently infected with EBV (and therefore oncogenic). Cells were maintained in RPMI 1640, (Mediatech) with 10% FBS (Hyclone), L-glutamine, penicillin and gentamicin.\nFor Primary assay, Akata cells latently infected with EBV were induced to undergo lytic infection by addition of 50μg/ml of a goat anti-human IgG [16] and a dose-range of verdinexor (0.032 to 100 μM) was added for 72hr. Denaturation buffer was added and an aliquot aspirated through an Immobilon nylon membrane (Millipore, Bedford, MA). Dried membranes were equilibrated in DIG Easy Hyb solution (Roche Diagnostics, Indianapolis, IN) at 56°C. Specific DIG-labeled probes for EBV (S1 Table). (Roche Diagnostics). Membranes with EBV DNA were hybridized overnight followed by washes in 0.2× SSC and 0.1× SSC both with 0.1% SDS. Detection of specifically bound DIG probe was performed with anti-DIG antibody (Roche Diagnostics). An image of the photographic film was captured and quantified with QuantityOne software (Bio-Rad), and the EC50 were interpolated."}, "[4]": {"tested_on": "Epstein-Barr virus (EBV) Akata strain", "assay": "EBV secondary assay, qPCR of viral DNA in induced Akata cells", "assay_type": "cell-based", "protocol": "as §2\nSecondary assay for EBV were performed in Akata cells that were induced to undergo a lytic infection with 50μg/ml of a goat anti-human IgG antibody by methods we reported previously. Experimental compounds were diluted in round bottom 96-well plates to yield concentrations ranging from 0.0032–100μM. Akata cells were added to the plates at a concentration of 4×10^4 cells per well and […]. Assay plates were incubated for seven days at 37°C. For all assays, the replication of the virus was assessed by the quantification of viral DNA. For primer sequences, please see S1 Table. EBV DNA was purified according to manufacturer’s instructions (Wizard SV 96 Genomic DNA Purification System). The purified DNA was then subjected to qPCR that amplified a fragment corresponding to nucleotides 96802–97234 in the EBV genome (AJ507799). Plasmid pMP218 containing a DNA sequences corresponding to nucleotides 14120–14182 (AF148805.2) was used to provide absolute quantification of viral DNA. Compound concentrations sufficient to reduce genome copy number by 50% were calculated from experimental data."}, "[5]": {"conditions": "human gammaherpesvirus 4, Akata"}}, "data": [{"smiles": "Nc1nc(O)c2ncn(COC(CO)CO)c2n1", "note": "[ganciclovir, reference compound]", "values": [{"measurement": "EC50", "setting": "Human CMV strain AD169; primary screen", "value": 0.51, "unit": "µM"}, {"measurement": "EC50", "setting": "Human CMV strain AD169; secondary screen", "value": 4, "unit": "µM"}]}, {"smiles": "Nc1ccn(C[C@@H](CO)OCP(=O)(O)O)c(=O)n1", "note": "[cidofovir, reference compound]", "values": [{"measurement": "EC50", "setting": "HPV-11; Human papillomavirus, HPV-11, primary screen", "value": 148, "unit": "µM"}, {"measurement": "efficacy against HPV-11", "setting": "HPV-11; primary screen, qPCR", "value": "did not show efficacy"}, {"measurement": "EC50", "setting": "KSHV strain BCBL-1; primary screen", "value": "< 0.48", "unit": "µM"}, {"measurement": "EC50", "setting": "KSHV strain BCBL-1; secondary screen", "value": 1.68, "unit": "µM"}, {"measurement": "EC50", "setting": "[1]", "value": 3.86, "unit": "µM"}, {"measurement": "EC50", "setting": "[2]; primary screen", "value": 4.48, "unit": "µM"}, {"measurement": "EC50", "setting": "[2]; secondary screen, compound added 1h post-infection", "value": 2.06, "unit": "µM"}]}, {"smiles": "Nc1nc2c(ncn2COCCO)c(=O)[nH]1", "note": "[acyclovir, reference compound]", "values": [{"measurement": "SI (Selectivity Index, CC50/EC50)", "setting": "[3]; EBV, primary screen, DNA hybridization", "value": "> 7"}, {"measurement": "EC50", "setting": "[3]; [5]", "value": 15, "unit": "µM"}, {"measurement": "SI (Selectivity Index, CC50/EC50)", "setting": "[4]; EBV, secondary screen, qPCR", "value": "> 13"}, {"measurement": "EC50", "setting": "[4]; [5]", "value": 7.9, "unit": "µM"}]}]}
